The values below are quoted from earlier work in patent US20030224072A1, “Topical and oral administration of a composition containing Pelargonium Graveolens for diagnosis and treatment of various neuralgias and other conditions” (priority 2002, published 2003).

The data set deals with neuropathic pain. Conditions: topical.

For `COc1cc(CNC(=O)CCCC/C=C/C(C)C)ccc1O` [Capsaicin], the “duration of burning sensation on skin” value is “approximately one week” and the “share of neuropathic pain patients with pain relief” value is on record as “only a small percentage”.
